For experiment [1], the target named is SARS-CoV-2 RBD (RBD Wuhan-1) binding to ACE2 (Severe acute respiratory syndrome coronavirus 2, UniProt P0DTC2).
The test system of experiment [2] is B.1.617.2 pseudovirus, entry into 293T-ACE2-TMPRSS2 cells. Format: cell-based, SARS-CoV-2.
The subject of experiment [3] is B.1.617.1 pseudovirus, entry into 293T-ACE2-TMPRSS2 cells. Format: cell-based, SARS-CoV-2. The conditions noted are these: for IC50: read-out: IC50, B.1.617.1 PV transduction assay.
The subject of experiment [4] is SARS-CoV-2 variant pseudoviruses (D614G, P.1., B 1.1.7, B.1.429 and B1.351), entry into 293T-ACE2-TMPRSS2 cells. The format is cell-based.

Values joined by “and” are separate entries in the source; they are usually repeats but may differ in a detail not shown here. Equal values may be shown once. Where a name gives a salt, the structure may show the parent alone.

As to `CC(C)(S)C(=O)N[C@@H](CS)C(=O)O` [Bucillamine], in experiment [1], the “Inhibition of binding of RBD Wuhan-1 to ACE2 (in words)” value (from here on “Inhibition of binding … (in words)”) is recorded as “much stronger effects”. In addition, the “Increase of IC50 for B.1.617.2 versus B.1.617.1” value (shortened to “Increase of IC50”) in experiment [2] is recorded as “approximately two-fold”.

With `CC(C)(S)[C@@H](N)C(=O)O` [Penicillamine], the “Inhibition of binding … (in words)” value in experiment [1] is “relatively weak inhibitory effects”.

Regarding `O=C(O)[C@@H](S)[C@@H](S)C(=O)O` [Succimer, Dimercaptosuccinic acid], the “Inhibition of binding … (in words)” value in experiment [1] is recorded as “relatively weak inhibitory effects”.

For `NCCCNCCS` [WR-1065], the “Inhibition of binding … (in words)” value in experiment [1] is “much stronger effects”. In addition, the IC50 was ~1000 µM in experiment [3]; 6000 µM and 5000 to 15000 µM in experiment [2] (read-out: IC50, B.1.617.2 PV transduction assay). The “Increase of IC50” value in experiment [2] was 3–15 fold.

Regarding `NCCS` [Cysteamine], the “Inhibition of binding … (in words)” value in experiment [1] is recorded as “much stronger effects”. The 50% inhibitory concentration (IC50) in experiment [3] was ~1000 µM. Further, in experiment [2], the “Increase of IC50” value was 3–15 fold. Moreover, in experiment [4], the “Entry of SARS-CoV-2 PV variants, cells pretreated” value is given as “not affected” and the “Potency against variant PV entry (in words)” value is listed as “less potent against the other variants tested”.

Consider `N[C@@H](CS)C(=O)O` [L-cysteine], for which, in experiment [3], the “Inhibition of B.1.617.1 PV entry (in words)” value is “intermediate potency”.

Turning to `O=S(=O)(O)CCS` [Mesna, 2-mercaptoethane sulfonate, sodium salt], the “Inhibition of binding … (in words)” value in experiment [1] is recorded as “much stronger effects”. Also, the “IC50, B.1.617.2 PV transduction assay” value in experiment [2] is given as “did not achieve an IC50 value at the doses tested”.

As for `CO[C@H]1O[C@H](CS)[C@H](O)[C@H](O)[C@H]1O` [TDG, methyl 6-thio-6-deoxy-α-D-galactopyranoside], the “Potency higher than compounds with similarly high pKa values (NAC, Mesna)” value in experiment [3] amounted to 5 fold. The “Increase of IC50” value in experiment [2] is 3–15 fold.
